In ChEMBL document CHEMBL1201862, “PubChem BioAssay data set” (2004):
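Cells were grown in 96-well plates and exposed to each compound for 48 hours at five concentrations; endpoints were interpolated linearly between bracketing concentrations, or set to the highest concentration if not reached. GI50 = concentration required for 50% inhibition of growth.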 Activity calls are given as the source filed them. Rule as the data show it: active = GI50 up to about 1.1 µM and inactive = higher.

Tests used:
Experiment in all cases: inhibition of tumour cell growth, NCI panel, 48 h
HOP-92 = test system: HOP-92
HL-60 = test system: HL-60
SNB-78 = test system: SNB-78
KM12 = test system: KM12
SNB-19 = test system: SNB-19
A498 = test system: A498
IGROV-1 = test system: IGROV-1
OVCAR-8 = test system: OVCAR-8
MOLT-4 = test system: MOLT-4
M19-MEL = test system: M19-MEL
HT-29 = test system: HT-29
SF-295 = test system: SF-295
UACC-62 = test system: UACC-62
RXF 631 = test system: RXF 631
TK-10 = test system: TK-10
UO-31 = test system: UO-31
SR = test system: SR
HOP-62 = test system: HOP-62
SK-MEL-28 = test system: SK-MEL-28
KM-20L2 = test system: KM-20L2
NCI-H460 = test system: NCI-H460
NCI-H522 = test system: NCI-H522
UACC-257 = test system: UACC-257
NCI-H226 = test system: NCI-H226
OVCAR-5 = test system: OVCAR-5
M14 = test system: M14
CCRF-CEM = test system: CCRF-CEM
SK-OV-3 = test system: SK-OV-3
A549 = test system: A549
RXF 393 = test system: RXF 393
NCI-H23 = test system: NCI-H23
U-251 = test system: U-251
HCT-116 = test system: HCT-116
CAKI-1 = test system: CAKI-1
HOP-18 = test system: HOP-18
SF-539 = test system: SF-539
SNB-75 = test system: SNB-75
DLD-1 = test system: DLD-1
786-0 = test system: 786-0
COLO 205 = test system: COLO 205
HCC 2998 = test system: HCC 2998
K562 = test system: K562
DMS-114 = test system: DMS-114
OVCAR-3 = test system: OVCAR-3
SK-MEL-5 = test system: SK-MEL-5
RPMI-8226 = test system: RPMI-8226
DMS-273 = test system: DMS-273
SW-620 = test system: SW-620
Malme-3M = test system: Malme-3M
LXFL 529 = test system: LXFL 529
SN12C = test system: SN12C
EKVX = test system: EKVX
SK-MEL-2 = test system: SK-MEL-2
ACHN = test system: ACHN
SF-268 = test system: SF-268

Measured: GI50

CCNC(CCCC(NCC)P(=O)(O)O)P(=O)(O)O (stereo not drawn)
inactive: HOP-92 > 100 µM | HL-60 > 100 µM | SNB-78 > 100 µM | KM12 > 100 µM | SNB-19 > 100 µM | A498 > 100 µM | IGROV-1 > 100 µM | OVCAR-8 > 100 µM | MOLT-4 > 100 µM | M19-MEL > 100 µM | HT-29 > 100 µM | SF-295 > 100 µM | UACC-62 > 100 µM | RXF 631 > 100 µM | TK-10 > 100 µM | UO-31 > 100 µM | SR > 100 µM | HOP-62 > 100 µM | SK-MEL-28 > 100 µM | KM-20L2 > 100 µM | NCI-H460 > 100 µM | NCI-H522 > 100 µM | UACC-257 > 100 µM | NCI-H226 > 100 µM | OVCAR-5 > 100 µM | M14 > 100 µM | CCRF-CEM > 100 µM | SK-OV-3 > 100 µM | A549 > 100 µM | RXF 393 > 100 µM | NCI-H23 > 100 µM | U-251 > 100 µM | HCT-116 > 100 µM

C=C1C(=O)O[C@@H]2[C@H]1CCC(C)=C1C=CC(=O)[C@]12C
inactive: HOP-92 6.22 µM | HL-60 3.3 µM | CAKI-1 15.1 µM | SNB-78 4.61 µM | KM12 12.4 µM | HOP-18 15.9 µM | SNB-19 23.7 µM | IGROV-1 21.8 µM | SF-539 15.5 µM | SNB-75 18.9 µM | DLD-1 14.9 µM | OVCAR-8 17.3 µM | MOLT-4 10.9 µM | 786-0 > 10 µM | COLO 205 8.36 µM | HCC 2998 13.2 µM | K562 4.49 µM | HT-29 10.9 µM | SF-295 17 µM | UACC-62 10.3 µM | DMS-114 14.3 µM | RXF 631 11.3 µM | TK-10 23 µM | OVCAR-3 16.7 µM | UO-31 14.9 µM | SR 13.6 µM | SK-MEL-5 13.9 µM | SK-MEL-28 11.1 µM | RPMI-8226 6.67 µM | NCI-H460 19.4 µM | NCI-H522 2.42 µM | DMS-273 17.3 µM | UACC-257 12.4 µM | SW-620 6.21 µM | NCI-H226 22.9 µM | OVCAR-5 17.9 µM | CCRF-CEM 3.15 µM | SK-OV-3 27.2 µM | A549 23.6 µM | RXF 393 14.4 µM | NCI-H23 > 10 µM | U-251 22.4 µM | Malme-3M > 10 µM | LXFL 529 13.8 µM | SN12C 12.6 µM | EKVX 17 µM | SK-MEL-2 20.7 µM | ACHN 16.1 µM | SF-268 23.9 µM | HCT-116 12.2 µM
